The text below walks through data of patent publication US12668599B2, “Heterobifunctional compounds and methods of treating disease” (Halda Therapeutics OpCo, Inc., priority 2023, dated 2026).

One may read the GI50 as the concentration giving 50% growth inhibition.

The test system of test [1] is T-Rex 293 cell line SC3 cells having increased expression of androgen receptor protein due to exposure to doxycycline. In words: Cellular growth inhibition, T-Rex 293 SC3 cells with doxycycline-induced androgen receptor (CellTiter-Glo 2.0, 72 hours). The following applies: for Ratio of GI50's: GI50 of the top compound in the pair divided by GI50 of the lower compound, T-Rex 293 SC3 cells with doxycycline-induced androgen receptor; for GI50: T-Rex 293 SC3 cells with 10 ng/ml doxycycline (increased androgen receptor expression), 72 hours, CellTiter-Glo 2.0. In kind it is cell-based. How it is done:
(§1) Ability of the test compounds to inhibit proliferation of the foregoing cell types was evaluated according to the procedures set forth below.
(§2) The doxycycline-inducible androgen receptor protein expressing cell line was established using the following protocol: T-Rex 293 cells were purchased from Invitrogen (Cat #R71007) and transfected using Lipofectamine 2000 with the wild-type androgen receptor protein sequence cloned into the pcDNA4/TO vector. Transfected cells were selected using 400 μg/mL Zeocin (Invitrogen Cat #R25001). Following selection, single clones were raised and maintained in Dulbecco's Modified Eagle Medium (DMEM) supplemented with 10% w/w Tetracycline-free fetal bovine serum (FBS) and 250 μg/mL Zeocin. Clones were analyzed for expression of androgen receptor protein in the presence and absence of 10 ng/ml doxycycline (Sigma Cat #D9891), and a single doxycycline-inducible clone (hereinafter “SC3”) was selected for use in downstream assays.
(§3) The SC3 cells were seeded on poly-D-lysine coated, black clear-bottom 384-well plates at 2500/well, in 25 μL Phenol Red Free Dulbecco's Modified Eagle Medium (DMEM) supplemented with 10% w/w charcoal-dextran treated fetal bovine serum (FBS) and 1% w/w pen-strep, with or without 10 ng/ml doxycycline. Pen-Strep is a commercially available mixture of penicillin G and streptomycin, which is used in mammalian cell culture media to prevent bacterial contamination. Phenol Red Free Dulbecco's Modified Eagle Medium (DMEM) supplemented with 10% w/w charcoal-dextran treated fetal bovine serum (FBS) and 1% w/w pen-strep, with or without 10 ng/mL doxycycline is herein referred to as Treatment Medium. Following seeding of cells in the plates, the plates were spun at 300×g for 30 seconds, then equilibrated to room temperature for 30 minutes, and then deposited in a humidified tissue culture incubator maintained at 37° C. with 5% CO2.
(§4) At 24 hours after seeding of the cells, dilutions of test compound were prepared in DMSO and dissolved in Treatment Medium, to achieve a final DMSO concentration of 0.5% w/w, thereby providing the Test Compound Solution. A 25 μL aliquot of the Test Compound Solution was added to cells in the well plates. An equal volume of a solution containing DMSO and Treatment Medium was used as a negative control. Following treatment of cells with Test Compound Solution or said equal volume of a solution containing DMSO and Treatment Medium, the plates were spun at 300×g for 30 seconds, and then left in an incubator for 72 hours.
(§5) At the end of the treatment duration, cell viability was quantified with CellTiter-Glo 2.0 reagent (Promega Cat #G9243). For this purpose, plates were equilibrated to room temperature for 30 minutes, and then 25 μL of CellTiter-Glo 2.0 reagent was added to cells in the plate wells. Plates were then agitated on a shaker for two minutes at 500 rpm and subsequently incubated at room temperature for 10 minutes. Following incubation, the plates were spun at 3000×g for 30 seconds, then sealed with an optical adhesive cover, and luminescence readings were measured with an En Vision Plate Reader.
(§6) Data was normalized using zero luminescence for baseline. A four-parameter non-linear regression curve fit was applied to dose-response data in GraphPad Prism data analysis software to determine the half-maximal growth inhibitory concentration (GI50) for each test compound.
In general terms: In ATP-based viability assays light output follows the ATP content of the culture.

Test [2] concerns T-Rex 293 cell line SC3 cells lacking increased expression of androgen receptor protein. Briefly: Cellular growth inhibition, T-Rex 293 SC3 cells without doxycycline (CellTiter-Glo 2.0, 72 hours). In kind it is cell-based. The following applies: T-Rex 293 SC3 cells not exposed to doxycycline (no increased androgen receptor expression). As to the method: as §1, §2, §3, §4, §5, §6

The next test relates to VCaP cells. Briefly: Cellular growth inhibition assay for VCaP cells (CellTiter-Glo 2.0, 72 hours). In kind it is cell-based, human. The following applies: for GI50: CellTiter-Glo 2.0; for Ratio of GI50's: GI50 of the top compound in the pair divided by GI50 of the lower compound. How it is done:
Exemplary compounds were tested for ability to inhibit the proliferation of VCaP cells. VCap cells are a commercially available human prostate cancer cell line.
VCaP cells were purchased from American Type Cell Culture (ATCC Cat #CRL2876) and then seeded on poly-D-lysine coated, black clear-bottom 384-well plates at 5000/well in 25 μL Dulbecco's Modified Eagle Medium (DMEM) supplemented with 10% w/w Fetal bovine serum (FBS) and 1% w/w Pen-Strep. Pen-Strep is a commercially available mixture of penicillin G and streptomycin, which is used in mammalian cell culture media to prevent bacterial contamination. Dulbecco's Modified Eagle Medium (DMEM) supplemented with 10% w/w fetal bovine serum (FBS) and 1% w/w Pen-Strep is herein referred to as Treatment Medium. Following seeding of cells in the plates, the plates were spun at 300×g for 30 seconds, then equilibrated to room temperature for 30 minutes, and then deposited in a humidified tissue culture incubator maintained at 37° C. with 5% CO2.
as §4, §5, §6

Each structure is given as a SMILES string. Bounds are passed on as bounds.

For `COc1cc(O[C@H]2CC[C@H](NC(=O)c3ccc(N4CCC5(CCN(c6ccc(C7=N[C@@H](C)c8nnc(C)n8-c8sc(C)c(C)c87)cc6)CC5)C4)nn3)CC2)ccc1C#N` [Compound I-17, N-[4-(4-cyano-3-methoxy-phenoxy)cyclohexyl]-6-[8-[4-[(9S)-4,5,9,13-tetramethyl-3-thia-1,8,11,12-tetrazatricyclo[8.3.0.0^2,6]trideca-2 (6),4,7,10,12-pentaen-7-yl]phenyl]-2,8-diazaspiro[4.5]decan-2-yl]pyridazine-3-carboxamide], the “Ratio of GI50's” value (in test [1]; in the test on VCaP cells) was 1 throughout. Moreover, the GI50 (in test [1]; in test [2]; in the test with VCaP cells (72 hours)) was under 500 nM in each case.

On to `COc1cc(O[C@H]2CC[C@H](NC(=O)c3ccc(N4CCC5(CCC(c6ccc(C7=N[C@@H](C)c8nnc(C)n8-c8sc(C)c(C)c87)cc6)CC5)C4)nn3)CC2)ccc1C#N` (stereo partly drawn) [Compound I-19, N-[(1r,4r)-4-(4-cyano-3-methoxy-phenoxy)cyclohexyl]-6-[8-[4-[(9S)-4,5,9,13-tetramethyl-3-thia-1,8,11,12-tetrazatricyclo[8.3.0.0^2,6]trideca-2 (6),4,7,10,12-pentaen-7-yl]phenyl]-2-azaspiro[4.5]decan-2-yl]pyridazine-3-carboxamide], for which the concentration for 50% growth inhibition (GI50) in test [1] is under 500 nM; in test [2] (72 h), under 500 nM; with VCaP cells (Homo sapiens, VCaP, 72 h), under 500 nM.

As to `COc1cc(O[C@H]2CC[C@H](NC(=O)c3ccc(N4CCC5(CCC(c6ccc(C7=N[C@@H](C)c8nnc(C)n8-c8sc(C)c(C)c87)cc6)CC5)C4)nn3)CC2)ccc1C#N` (stereo partly shown) [Compound I-20], the GI50 (in test [1]; in test [2]; in the test on VCaP cells (72 hours)) was under 500 nM throughout.

In the case of `COc1cc(O[C@H]2CC[C@H](NC(=O)c3ccc(N4CCC5(CCC(c6ccc(C7=N[C@@H](C)c8nnc(C)n8-c8sc(C)c(C)c87)cc6)C5)CC4)nn3)CC2)ccc1C#N` (stereo partly shown) [Compound I-21], the GI50 in test [1] is under 500 nM; in test [2], under 500 nM; in the test on VCaP cells (72 hours) it was 500 to 1500 nM.

Consider `COc1cc(O[C@H]2CC[C@H](NC(=O)c3ccc(N4CCC5(CCC(c6ccc(C7=N[C@@H](C)c8nnc(C)n8-c8sc(C)c(C)c87)cc6)C5)CC4)nn3)CC2)ccc1C#N` (stereo partly shown) [Compound I-22], for which the 50% growth inhibitory concentration (GI50) in test [1] was under 500 nM; in test [2] (72 h), under 500 nM; with VCaP cells (Homo sapiens, VCaP, 72 h) it was 500 to 1500 nM.

As for `COc1cc(O[C@H]2CC[C@H](NC(=O)c3ccc(N4CCC5(CCN(c6ccc(C7=N[C@@H](C)c8nnc(C)n8-c8sc(C)c(C)c87)cc6)C5)CC4)nn3)CC2)ccc1C#N` [Compound I-23], the GI50 in test [1] is over 3000 nM; in test [2] (72 h), under 500 nM; in the test with VCaP cells (Homo sapiens, VCaP, 72 h), over 3000 nM.

As for `COc1cc(O[C@H]2CC[C@H](NC(=O)c3ccc(N4CCCC5(CCC(c6ccc(C7=N[C@@H](C)c8nnc(C)n8-c8sc(C)c(C)c87)cc6)CC5)C4)nn3)CC2)ccc1C#N` (stereo partly shown) [Compound I-24], the GI50 in test [1] was under 500 nM; in test [2] (72 h) it was 1500 to 3000 nM; with VCaP cells (Homo sapiens, VCaP, 72 h), under 500 nM.

As for `COc1cc(O[C@H]2CC[C@H](NC(=O)c3ccc(N4CCC5(CC4)CC(Cc4ccc(C6=N[C@@H](Cc7ncco7)c7nnc(C)n7-c7sc(C)c(C)c76)cc4)C5)nn3)CC2)ccc1C#N` [Compound I-25, N-[4-(4-cyano-3-methoxy-phenoxy)cyclohexyl]-6-[2-[[4-[(9S)-4,5,13-trimethyl-9-(oxazol-2-ylmethyl)-3-thia-1,8,11,12-tetrazatricyclo[8.3.0.0^2,6]trideca-2 (6),4,7,10,12-pentaen-7-yl]phenyl]methyl]-7-azaspiro[3.5]nonan-7-yl]pyridazine-3-carboxamide], the “Ratio of GI50's” value (in test [1]; in the test on VCaP cells) was 1 in each case. For the same compound, the GI50 in test [1] was under 500 nM; in test [2] (72 h) it was under 500 nM; in the test on VCaP cells (Homo sapiens, VCaP, 72 h), under 500 nM.

Consider `COC[C@@H]1N=C(c2ccc(C3CCC4(CC3)CCN(c3ccc(C(=O)NC5CCC(Oc6ccc(C#N)c(OC)c6)CC5)nn3)C4)cc2)c2c(sc(C)c2C)-n2c(C)nnc21` (stereo partly drawn) [Compound I-27, N-[4-(4-cyano-3-methoxy-phenoxy)cyclohexyl]-6-[8-[4-[(9R)-9-(methoxymethyl)-4,5,13-trimethyl-3-thia-1,8,11,12-tetrazatricyclo[8.3.0.0^2,6]trideca-2 (6),4,7,10,12-pentaen-7-yl]phenyl]-2-azaspiro[4.5]decan-2-yl]pyridazine-3-carboxamide], for which the GI50 in test [1] is under 500 nM; in test [2] (72 h), under 500 nM; with VCaP cells (Homo sapiens, VCaP, 72 h) it was under 500 nM.

Turning to `COCC[C@@H]1N=C(c2ccc(C3CCC4(CC3)CCN(c3ccc(C(=O)NC5CCC(Oc6ccc(C#N)c(OC)c6)CC5)nn3)C4)cc2)c2c(sc(C)c2C)-n2c(C)nnc21` (stereo partly drawn) [Compound I-29, N-[4-(4-cyano-3-methoxy-phenoxy)cyclohexyl]-6-[8-[4-[(9S)-9-(2-methoxyethyl)-4,5,13-trimethyl-3-thia-1,8,11,12-tetrazatricyclo[8.3.0.0^2,6]trideca-2 (6),4,7,10,12-pentaen-7-yl]phenyl]-2-azaspiro[4.5]decan-2-yl]pyridazine-3-carboxamide], the 50% growth inhibitory concentration (GI50) in test [1] was under 500 nM; in test [2] (72 h), under 500 nM; in the test on VCaP cells (Homo sapiens, VCaP, 72 h), under 500 nM.

Take `COCC[C@@H]1N=C(c2ccc(C#CC3CC4(C3)CN(c3ccc(C(=O)NC5CCC(Oc6ccc(C#N)c(OC)c6)CC5)nn3)C4)cc2)c2c(sc(C)c2C)-n2c(C)nnc21` (stereo partly drawn) [Compound I-30, N-[4-(4-cyano-3-methoxy-phenoxy)cyclohexyl]-6-[6-[2-[4-[(9S)-9-(2-methoxyethyl)-4,5,13-trimethyl-3-thia-1,8,11,12-tetrazatricyclo[8.3.0.0^2,6]trideca-2 (6),4,7,10,12-pentaen-7-yl]phenyl]ethynyl]-2-azaspiro[3.3]heptan-2-yl]pyridazine-3-carboxamide]: the GI50 (in test [1]; in test [2]; in the test with VCaP cells (72 hours)) was under 500 nM throughout.

For `CC[C@@H]1N=C(c2ccc(C#CC3CC4(C3)CN(c3ccc(C(=O)N[C@H]5CC[C@H](Oc6ccc(C#N)c(OC)c6)CC5)nn3)C4)cc2)c2c(sc(C)c2C)-n2c(C)nnc21` [Compound I-31, N-[4-(4-cyano-3-methoxy-phenoxy)cyclohexyl]-6-[6-[2-[4-[(9S)-9-ethyl-4,5,13-trimethyl-3-thia-1,8,11,12-tetrazatricyclo[8.3.0.0^2,6]trideca-2 (6),4,7,10,12-pentaen-7-yl]phenyl]ethynyl]-2-azaspiro[3.3]heptan-2-yl]pyridazine-3-carboxamide], the GI50 in test [1] is under 500 nM; in test [2] (72 h), under 500 nM; in the test with VCaP cells (Homo sapiens, VCaP, 72 h) it was under 500 nM.
